Results reported in patent US20150094264A1, “USE OF OBESTATIN FOR MUSCLE REGENERATION” (UNIVERSIDADE DE SANTIAGO DE COMPOSTELA, priority 2012, published 2015).

How the values were obtained:
L6E9 myoblasts = assay: Mitogenic effect (number of cells) in L6E9 myoblasts in growth medium; assay type: cell-based, rat
Procedure: FIG. 2. Mitogenic effect of obestatin in L6E9 myoblasts. Mitogenic effect of different doses of obestatin (0.01-100 nM) in L6E9 myoblasts after 48 hours of stimulation in the presence of growth medium [GM: DMEN+10% FBS]. Co: initial number of cells. Control: number of cells after 48 hours in GM. GM+obestatin: number of cells after 48 hours of stimulation with obestatin in GM. The data are expressed as mean±standard error of 4 independent experiments (*, p<0.05).
The studies were performed based on the use of L6E9 rat myoblasts which were maintained in growth medium (GM) formed by DMEM (Dulbecco's Modified Eagle Medium) supplemented with 10% fetal bovine serum (FBS), 100 U/mL penicillin, and 100 U/mL streptomycin. For the differentiation, the cells were cultured at 80-100% of confluence in GM and it was replaced for differentiation medium (DM) formed by DMEM supplemented with 2% FBS, 100 U/mL penicillin, and 100 U/mL streptomycin during 6 days.
Dose-dependent studies performed on myoblasts with different obestatin concentrations (0.01-100 nM) in GM (proliferative conditions) show a maximum increase in the number of cells at 48 hours post-stimulation at a concentration of 5.0 nM obestatin (˜2.2-increased in relation to the control; FIG. 2).

[1] = test system: damaged tibialis anterior of mouse; assay: Local administration in damaged tibialis anterior of mouse: myogenic markers, immunoblot; assay type: in vivo, Swiss mice; conditions: 300 nmol/kg weight local, 24 h intervals
Procedure: FIG. 8. Effect of the exogenous administration of obestatin in the damaged tibialis anterior of mouse (animal model) on the myogenic markers PAX-7 (A), MyoD (B), myogenin (C) and eMHC (D). Effect of the local exogenous administration of obestatin (300 nmol/kg/24 h) on early and later markers of myogenesis in damaged skeletal muscle tissue (tibialis anterior) in mice. The protein levels are expressed as % of the control obtained from the group of animals with administration of PBS (n=10 per group; mean±standard error; *, #, p<0.005).
The tissue or cell samples were directly lysed in RIPA buffer [Tris-HCl (pH 7.2), 50 mM; NaCl, 150 mM; EDTA, 1 mM; NP-40, 1% (v/v); Sodium deoxycholate, 0.25% (w/v); protease inhibitors (Sigma); phosphatise inhibitors (Sigma)]. The lysates were clarified by centrifugation (14,000×g during 15 min at 4° C.) and the protein concentration was quantified using QuantiPro™ BCA assay kit (Sigma). For immunoblot, equal amounts of protein were loaded which were fractionated in SOS-PAGE gels and transferred to nitrocellulose membranes. The immunoreactive bands were detected by chemiluminescence (Pierce ECL Western Blotting Substrate; Thermo Scientific, Ill., USA).
The mice (30 g; n=50) were maintained in 12 h light-darkness cycled with free access to standard diet and water. To induce the muscle damage, the tibialis anterior muscle (TA) was extracted under anaesthesia and subjected to three cycles of damage due to cold contact applying along the length of the muscle a metal bar cooled in liquid nitrogen. The damaged muscles were treated locally with obestatin injection (300 nmol/kg weight) or the corresponding vehicle (PBS; control) during the times indicated in 24 h intervals. The animals were assigned to one of the five experimental groups (n=10/group): 1) control group (saline); 2) obestatin group 48 h (obestatin 300 nmol/kg weight/24 h); 3) obestatin group 96 h (obestatin 300 nmol/kg weight/24 h); 4) obestatin group 168 h (obestatin 300 nmol/kg weight/24 h); and, obestatin group 240 h (obestatin 300 nmol/kg weight/24 h). After the indicated times, the mice were sacrificed by cervical dislocation under anaesthetic treatment and the tissues were extracted for immunoblot and immunohistochemical analyses.
The estimate of the therapeutic potential of obestatin as muscle regenerator agent was assessed in Swiss mice wherein muscle damage was induced in the tibialis anterior and obestatin (300 nmol/kg weight) or the corresponding vehicle (PBS) was later locally administered. The muscles were extracted and analysed by immunoblot 48, 96, 168 and 240 h after the treatment (n=5 per study time).

obestatin
maximum increase in the number of cells in relation to the control (L6E9 myoblasts; 5.0 nM obestatin, 48 hours post-stimulation, GM (DMEM+10% FBS)): ~2.2
obestatin concentration of maximum increase in the number of cells (L6E9 myoblasts; range 0.01-100 nM, 48 hours, GM): 5.0 nM
expression times of each of the factors analysed (Pax-7, MyoD, myogenin, eMHC) [1]: acceleration
MyoD levels in treated muscles in relation to control muscles ([1]; 48, 96, 168 and 240 h): significantly higher
Pax-7 levels in treated muscles in relation to control muscles ([1]; 48, 96, 168 and 240 h): significantly higher
eMHC levels in treated muscles in relation to control muscles ([1]; 48, 96, 168 and 240 h): significantly higher
myogenin levels in treated muscles in relation to control muscles ([1]; 48, 96, 168 and 240 h): significantly higher
